Several values for one entry are separate records, joined by “and”; a condition that tells them apart may be missing. Equal values may be shown once.
Experiments:
plasma proteins = assay: Plasma protein binding (RED), monkey plasma; assay type: in vitro ADME
Protocol: The plate containing plasma and buffer was equilibrated for 6 h in a 37°C water shaking bath. After incubation, aliquots of buffer and plasma (20 µL) on both sides were collected and precipitated using organic solvents. […] The post-dialysis recovery of amdizalisib was also measured.

[1] = Metabolic stability in human liver microsomes; assay type: in vitro ADME
Protocol: FMO was deactivated by heating liver microsomes at 45°C for 5 min. […] The natural logarithm of the percentage of the drug remaining was plotted against the incubation time, and the slope of the linear regression (-k) was converted to in vitro half-lives (t1/2) using the following equation: […] (1) metabolic clearance is the major mechanism of clearance; (2) liver is the major organ of clearance; and (3) oxidation is the major metabolic pathway. CLint,in vitro=k / Cmicrosomes , Scaled CLint,in vivo=CLint,in vitro×microsomes yield×liver weight, where Cmicrosomes means the experimental protein concentration (0.5 mg/mL) in the incubation system. […] Then, the scaled in vivo intrinsic clearance was used to predict the systemic clearance (equal to the hepatic clearance) using the well-stirred venous equilibration model ([Houston, 1994]).

CYP2D6 [2] = target: T1, CYP2D6 (Homo sapiens, UniProt P10635); assay: Reversible CYP inhibition in HLM, CYP2D6 (dextromethorphan); assay type: in vitro ADME; conditions: for enzyme activity remaining: CYP2D6, HLM
T1 construct: tissue Life Technologies (Durham, NC, USA); host or cells: human liver microsomes
T1 sequence (P10635 whole entry): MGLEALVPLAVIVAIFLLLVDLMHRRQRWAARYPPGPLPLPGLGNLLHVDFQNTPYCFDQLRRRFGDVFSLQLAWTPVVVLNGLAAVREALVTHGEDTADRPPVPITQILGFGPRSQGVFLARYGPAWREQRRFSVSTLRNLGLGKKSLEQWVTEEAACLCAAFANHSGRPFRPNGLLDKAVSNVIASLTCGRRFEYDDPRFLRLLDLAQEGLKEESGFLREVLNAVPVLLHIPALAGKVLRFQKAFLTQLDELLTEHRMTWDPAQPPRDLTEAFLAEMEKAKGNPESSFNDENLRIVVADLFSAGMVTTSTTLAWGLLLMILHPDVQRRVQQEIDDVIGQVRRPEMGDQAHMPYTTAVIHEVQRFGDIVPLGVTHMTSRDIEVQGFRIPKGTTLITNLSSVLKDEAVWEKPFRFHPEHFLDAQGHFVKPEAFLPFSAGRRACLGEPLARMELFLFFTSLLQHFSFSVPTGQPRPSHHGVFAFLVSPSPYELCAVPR
Protocol: The markers used to determine the activities of CYP isoforms were phenacetin O-deethylation for CYP1A2 (probe substrate: 50 µM phenacetin), bupropion hydroxylation for CYP2B6 (probe substrate: 70 µM bupropion), paclitaxel 6α-hydroxylation for CYP2C8 (probe substrate: 10 µM paclitaxel), diclofenac 4′-hydroxylation for CYP2C9 (probe substrate: 5 µM diclofenac), S-(+)-mephenytoin 4′-hydroxylation for CYP2C19 (probe substrate: 20 µM S-(+)-mephenytoin), dextromethorphan O-demethylation for CYP2D6 (probe substrate: 6 µM dextromethorphan), chlorzoxazone 6′-hydroxylation for CYP2E1 (probe substrate: 70 µM chlorzoxazone), and testosterone 6β-hydroxylation and midazolam 1′-hydroxylation for CYP3A4/5 (probe substrate: 45 µM testosterone and 5 µM midazolam). […] Alpha-naphthoflavone (0.04 µM), 2-phenyl-2-(1-piperidinyl)propane (5 µM), quercetin (1 µM), sulfaphenazole (0.5 µM), ticlopidine (4 µM), quinidine (0.2 µM), diethyldithiocarbamate (20 µM), and ketoconazole (0.05 µM) were used as positive inhibitors of CYP1A2, 2B6, 2C8, 2C9, 2C19, 2D6, 2E1, and 3A4, respectively. The vehicle control was prepared in the same composition as inhibitor solutions but free of inhibitors. The concentrations of probe substrates were close to Km values that were determined in-house and within the range recommended by the FDA ([Huang et al., 2007]). Reaction mixtures were incubated at 37°C for 5, 20, or 30 min, depending on the probe substrates of CYP isoforms. The reactions were terminated by adding cold acetonitrile containing IS, and the terminated incubation mixtures were centrifuged at 3,000 g for 10 min before LC-MS/MS analysis.

CYP2D6 [3] = target: T1, CYP2D6; assay: Time-dependent CYP inhibition in HLM, CYP2D6; assay type: in vitro ADME; conditions: 10 μM, 30 min pre-incubation with NADPH
Protocol: The procedure of time-dependent CYP inhibition was similar to that used for CYP reversible inhibition, as mentioned above, except that a pre-incubation step was added. […] Another appropriate volume of the NADPH-regenerating system and probe substrate were added to initiate the CYP isoform enzyme activity test step. For this step, the incubation period was 10 min, except for CYP2B6, CYP2C8, and CYP3A4/5 (probe substrate: midazolam), which was 3 min to make sure the reaction was under initial linear rates. After incubation for the designated time periods at 37°C, the ice-cold acetonitrile containing IS was added to quench the reaction. […] (Ainactivator/[…] represents the enzyme activity remaining due to the inhibition by the diluted inactivator in the enzyme activity test step, and (Ainactivator/[…] represents the remaining enzyme activity due to pre-incubation loss plus inhibition by the diluted inactivator in the enzyme activity test step.

[4] = humans, RP2D 30 mg, phase Ib (n = 90); ref European Society for Medical Oncology, 2021; cited from earlier work
[5] = Single-dose PK in ICR mice (IV/PO)
Protocol: All intravenous and oral dose formulations were analyzed by liquid chromatography coupled with tandem mass spectrometry (LC-MS/MS) to confirm test article concentration and determine formulation stability.
Animals had free access to food, and water was allowed ad libitum. […] The blood samples were collected with sodium heparin as an anticoagulant. The plasma samples were obtained from blood samples by centrifugation and stored at −80°C until analysis.
A total of eighteen mice were divided into intravenous (IV) and oral (PO) administration groups, with nine animals in each group. The mice were fasted overnight with free access to water before dosing. […] After the mice were anesthetized with isoflurane, approximately 100 μL of whole blood was collected through the retro-orbital sinus and transferred to a 1.5 mL tube containing sodium heparin. The gathered blood samples were kept on ice until centrifugation. Plasma samples were harvested by centrifugation at 1,500 g for 10 min at 4°C.
Pharmacokinetic parameters were calculated by a non-compartmental method using Thermo Kinetica® (Version 5.1 SP1, Thermo Electron Corporation, Philadelphia, Pennsylvania, United States). The area under the plasma concentration–time curve from time zero to the time of the last measurable sample (AUC0-t) or the plasma concentration–time curve from time zero to infinity (AUC0-inf) was calculated using the linear trapezoidal method.

[6] = male, ICR, mouse, in vivo, iv, 2.5 mg/kg
[7] = male, ICR, mouse, in vivo, po, 10 mg/kg

In the case of C[C@H](Nc1ncnc(N)c1C#N)c1cc2ncc(Cl)n2nc1-c1ccccc1 [Amdizalisib], the “Binding fraction to plasma proteins, Monkey” value (“Binding fraction” below) (plasma proteins; 0.1 µM) is reported as 90.6 ± 4.56%, the “Binding fraction” value (plasma proteins; 1 µM) is reported as 89.7 ± 0.22% and the “Binding fraction” value (plasma proteins; 20 µM) is reported as 88.9 ± 0.38%. The “Predicted CL sys” value ([1]; female human liver microsomes, FMO deactivation) was 5.07 mL/min/kg, the CLint scaled at 1 µM ([1]; female, human, microsomes, pH 7.4, Predicted CL int, iv vivo) was 5.78 mL/min/kg and the half-life at 1 µM ([1]; female, human, microsomes, pH 7.4, in vitro t1/2) was 2.32 h. For the same molecule, the parent drug remaining ([1]; male, human, microsomes, 2 h, 1 µM, pH 7.4) was greater than 80%, the enzyme activity remaining (CYP2D6 [2]; 0.08 μM) was 103% and the enzyme activity remaining (CYP2D6 [2]; 0.4 μM) was 103% and 107%. The enzyme activity remaining (CYP2D6 [2]; 2 μM) was 104% and 98.0%, the enzyme activity remaining (CYP2D6 [2]; 10 μM) was 98.0% and 98.6% and the enzyme activity remaining (CYP2D6 [2]; 50 μM) was 80.0% and 84.5%. The IC50 (CYP2D6 [2]; HLM, reversible, without pre-incubation) was greater than 50 µM, the “activity loss of CYP2D6” value (CYP2D6 [3]) was “less than 10%” and the “Grade 3 diarrhea” value [4] was 2.2%. For the same molecule, the colitis [4] was “no colitis cases were reported”, the “serious GI toxicity” value [4] was “less than 5%” and the FPO ([5]; ICR mouse, fasted, PO 10 mg/kg) was 101%. For the same molecule, the AUC(0-inf) [5, 6] was 2830 ng·h/mL, the AUC(0-t) [5, 6] was 2700 ng·h/mL and the MRT [5, 6] was 2.12 h. For the same molecule, the Vd [5, 6] was 1.87 L/kg, the clearance [5, 6] was 14.7 mL/min/kg and the half-life [5, 6] was 2.06 h. For the same molecule, the AUC(0-inf) [5, 7] was 13700 ng·h/mL, the AUC(0-t) [5, 7] was 10900 ng·h/mL and the Cmax [5, 7] was 3080 ng/mL. For the same molecule, the MRT [5, 7] was 4.91 h and the half-life [5, 7] was 4.16 h.
